Bounds are passed on as bounds.

By melting point is commonly meant the temperature, or range, at which the solid turns liquid. `Cn1ncc2[nH]c3ccc(F)cc3c(=O)c21` returned a melting point of 301 °C.

The compound `CC(C)(C)OC(=O)[C@H]1CCCN1S(=O)(=O)c1ccc2c(Cl)cnc(Cl)c2c1` came in with a melting point of 80 to 82 °C.

Compound `COCc1c(C=NO)ncc2[nH]c3cccc(Cc4ccccc4Cl)c3c12` gave a melting point of 209 to 212 °C. For `COc1ccc(N2CCN(N)CC2)cc1`, the melting point was 107 °C. The compound `O=c1ccc(C(F)(F)F)cn1Cc1ccc(NCCCN2CCCCC2)cc1` gave a melting point of 168 to 170 °C. With `Cc1nc(-n2ccc(OCC3CCCC3)cc2=O)sc1C(=O)NCc1ccccc1`, the melting point fell in the range of 196 to 198 °C. Consider `Fc1ccc2[nH]c3c(c2c1)CN(CCc1ccccn1)CC3`, for which the melting point was in the range of 199 to 201 °C. Take `Cc1c(Br)c2c(c(C)c1NC(=O)CC(C)(C)C)C(c1ccc(C(C)C)cc1)CO2` (configuration not stated): the melting point lay in the range of 118 to 119 °C. Compound `CC(C)(C)c1ccc(C(=O)Nc2ccc3oc4c(c3c2)CCCC4)cc1` had a melting point of 185 to 186 °C. With `COCOCc1nc(-c2ccccc2)oc1COc1ccc(OCc2nc(-c3ccccc3)oc2C)cc1` the figure was 74 to 75 °C; with `Cc1ccc2c(c1)C(=O)N(CCO[N+](=O)[O-])CO2`, 76 to 78 °C; with `CCC(NC(=NC#N)Nc1cccnc1)c1ccccc1` (configuration not stated), 155 to 156 °C. With `CCOC(=O)c1cn(-c2nc[nH]n2)cn1` the figure was 220 to 222 °C; with `O=c1[nH]c2ccc(Cl)cc2c(=O)c2ccccc12`, 289 to 293 °C; with `Cc1ccc(Nc2c(N3CCCC3)cc(C(=O)O)cc2S(N)(=O)=O)cc1`, 188 to 191 °C. Compound `Cc1ccc2[nH]c(C)c(-c3ccc(F)cc3)c2c1` registered a melting point of 124 to 128 °C. Compound `O=c1[nH]cc(Cc2ccncc2)c2ccccc12` registered a melting point of 189 to 190 °C. In the case of `COc1ccc2onc(Nc3ccncc3)c2c1`, the melting point was in the range of 248 to 251 °C. As for `CCCCc1nc2cccc(C(=O)OC)c2n1Cc1ccc(-n2c(C)ccc2C#N)cc1`, the melting point is 131 to 132 °C.

In the case of `C[C@@H]1Cc2cc3c(cc2C(c2ccc([N+](=O)[O-])cc2)=NN1C(=S)NN)OCO3`, the melting point was 140 to 142 °C. `N#Cc1cccc(Cl)c1-c1[nH]c(=O)c(-c2ccccc2)cc1C(=O)O` registered a melting point of 279 °C. Compound `COCc1nc2c(N)nc3cc(OCc4ccccc4)ccc3c2n1CCc1ccccc1` registered a melting point of 195 to 197 °C.

For the compound `CC(C)c1nn(-c2ccc(C(F)(F)F)cc2)cc1C=O`, the melting point lay within 81 to 82 °C. `COc1ccccc1Cc1ccc2[nH]c3cnn(C)c3c(=O)c2c1` came in with a melting point of 255 °C.

As to `CCCC(=O)Nc1ccc(Sc2ccccc2)cc1NC(=NC(=O)OC)NC(=O)OC`, the melting point was in the range of 164 to 166 °C.

`Cc1ccc(-c2cccc3c2OC(COS(=O)(=O)c2ccc(C)cc2)C3)cc1` (configuration not stated) came in with a melting point of 145 to 147 °C. In turn, `COCCOc1ccc2c(c1)n(C1CCCCC1)c(=O)n2S(=O)(=O)c1ccc(C(=O)O)cc1OC` gave a melting point of 105 °C. For `CCCN1CCc2c(c(Br)cc([N+](=O)[O-])c2NC(C)=O)C1`, the melting point is 166 to 167 °C. In turn, `CC12CC(N3CCOCC3)C(O)CC1CCC1C2CCC2(C)C(O)C(N3CCCC3)CC12` (configuration not stated) gave a melting point of 226 °C. Take `CCCCOc1ccc(Nc2cc(Nc3ccc4c(c3)OCCO4)ncc2F)cc1`: the melting point lay within 150 to 151 °C.

Consider `O=C(NCC12CC3CC(CC(C3)C1)C2)c1cc(I)cnc1Cl`, for which the melting point is 163 to 164 °C.

For `O=C(O)[C@H](CCc1ccccc1)NS(=O)(=O)c1ccc2c(c1)Sc1ccccc1O2`, the melting point is 149 to 154 °C. For `Cc1[nH]c(Cc2ccccc2)nc1C=O`, the melting point lay in the range of 171 to 173 °C.

On to `Clc1ccccc1-c1cnccn1`, for which the melting point lay in the range of 38 to 39 °C. Take `N#CCc1ccc(-c2nc3ccccc3o2)cc1-c1cccc(C#N)c1`: the melting point lay in the range of 175 to 176 °C.

The compound `OCCCC(c1ccccc1)C(O)(c1ccccc1)c1ccccc1` (configuration not stated) came in with a melting point of 120 to 122 °C. Turning to `CC(C)(C)c1ccc(C2(Cl)CN(C(c3ccccc3)c3ccccc3)C2)cc1`, the melting point is 145 °C. In the case of `N#CSc1nsnc1Cl`, the melting point was 63 to 65 °C. In the case of `CC(CN1CCN(C(c2ccc(F)cc2)c2ccc(F)cc2)CC1)Cn1c(=O)[nH]c2ccccc21` (configuration not stated), the melting point was 176 °C. With `CCOC(=O)C(=[N+]=[N-])C(=O)c1cc(OC)ccc1C1CCc2cc(OC)ccc21` (configuration not stated) the figure was 97 to 99 °C; with `N#Cc1c(N2CCCCC2)cc(-c2ccccc2)c2c1-c1ccccc1C2`, 156 °C; with `Cc1c(OCC(F)(F)F)ccnc1CS(=O)c1nc2ccccc2n1S(=O)(=O)c1ccc2c(c1)OCCOCCOCCOCCO2` (configuration not stated), 76 to 80 °C. With `O=c1cc(-c2ccc(O)c(Br)c2)oc2ncccc12` the figure was 267 to 272 °C; with `CC(=O)N(C#N)c1ccc(Cc2ccc(N(C#N)C(C)=O)cc2)cc1`, 134 to 136 °C. Turning to `COC1CSC2=C(SC1)C(OC(=O)N1CCN(C)CC1)N(c1ccc(Cl)cn1)C2=O` (configuration not stated), the melting point turned out to be 197 °C.

For the compound `CC(C)(C)[Si](C)(C)OCCCn1ccc2c3c(c(-c4ccccc4Cl)cc21)C(=O)NC3=O`, the melting point fell in the range of 158 to 160 °C. With `COc1ccc(C(=O)c2ccccn2)cc1CCl` the figure was 92 to 94 °C. `Cc1cc(C)n(-c2nc(-c3ccc(Cl)cc3)c(CCC(=O)N3CCN(CC4CCN(C)CC4)CC3)o2)n1` yielded a melting point of 126 to 127 °C. In turn, `O=C1Nc2cc(Cl)ccc2C(=O)C1c1ccncc1` (configuration not stated) came in with a melting point of more than 330 °C. The compound `COc1cccc2c(=O)n3ccsc3nc12` gave a melting point of 230 to 232 °C. On to `CC(C)CC(NC(=O)C(Cc1c[nH]cn1)NC(=O)C(Cc1cccc2ccccc12)NC(=O)OCc1ccccc1)C(O)CC(=O)O` (configuration not stated), for which the melting point lay in the range of 191 to 192 °C. With `Cc1oc(-c2ccccc2)nc1COc1ccc(CCCCCC2OC(=O)NC2=O)cc1` (configuration not stated) the figure was 120 to 121 °C; with `CC(=O)OC1CC2=CC=C3C4CCC(C(C)CCCC(C)C)C4(C)CCC3C2(C)C(OC(C)=O)C1` (configuration not stated), 113 to 114 °C; with `O=C(O)COc1cc(C(=O)O)ccc1NC(=O)NC(=O)c1ccc(F)cc1Cl`, 279 to 281 °C.

Take `O=C1COc2cc(NC(=O)C(=O)N3CCC(CCc4ccccc4)CC3)ccc2N1`: the melting point fell in the range of 128 to 132 °C. Take `CC(c1oc2ccccc2c(=O)c1-c1ccccc1)n1nc(C#CC(C)(C)O)c2c(N)ncnc21` (configuration not stated): the melting point was 109 to 113 °C.

As for `Clc1cccc2c1C1(CO1)c1ccccc1C21CO1` (configuration not stated), the melting point fell in the range of 85 to 92 °C.

`CSC(=S)NCc1cn(-c2ccc(N3CCOCC3)c(F)c2)nn1`: the melting point is 148 °C.

`COC1CCN(Cc2ccc(C#CC(=O)Nc3ccc(-c4ccc(Cl)cc4)cc3)cc2)CC1` showed a melting point of 145 to 146 °C. With `OC1(c2ccccc2)CCN(CCCC2COc3ccccc3O2)CC1` (configuration not stated) the figure was 95 to 98 °C; with `CCOC(=O)c1c(C(F)(F)F)nc(C(F)(F)F)c(C(=O)OCC)c1N`, 52 to 58 °C; with `Cc1cc(COc2ccc(S(=O)(=O)NC[C@@H](C(=O)NO)N3CCOCC3)cc2)c2ccccc2n1`, 138 °C.

Values taken from a melting point compilation (Tetko et al.; mined from patent text by program, amines drawn as free bases though some values may be those of a salt).
